Test results reported in the supplement of paper PMC10307832.

What was measured:
Assay in all cases: relative viability (nuclei count vs DMSO), 5 days (fraction); higher = more cells survive
[1] = compound: CCN1C(=O)C2=CC(=C(N=C2N(C1=O)C3CC3)N)C(=O)N + CC1(C)CCC(c2ccc(Cl)cc2)=C(CN2CCN(c3ccc(C(=O)NS(=O)(=O)c4ccc(N[C@H](CCN5CCOCC5)CSc5ccccc5)c(S(=O)(=O)C(F)(F)F)c4)cc3)CC2)C1 [Navitoclax] (partner 0.5 µM)
Procedure, shortened: (§1)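 Lung cancer cell lines were seeded in 1536-well plates and dosed by pin tool the next day, with either a single drug or a fixed anchor-drug dose combined with five library-drug doses (not always all listed) spaced in √10 steps. Five days later, one step fixed the cells and stained their nuclei (final 0.05% Triton X-100, 1% formaldehyde, 1 ug/ml Hoechst), and nuclei were counted on 4× images. Relative viability is the nuclei count in treated wells divided by the count in vehicle wells, and each value is the median of duplicate plates.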

[2] = compound: CCN1C(=O)C2=CC(=C(N=C2N(C1=O)C3CC3)N)C(=O)N + COc1cc2c(Oc3ccc(NC(=O)C4(C(=O)Nc5ccc(F)cc5)CC4)cc3F)ccnc2cc1OCCCN1CCOCC1 [Foretinib] (partner 0.25 µM)
Procedure, shortened: as §1

[3] = compound: CCN1C(=O)C2=CC(=C(N=C2N(C1=O)C3CC3)N)C(=O)N + Cc1cc(Nc2cc(N3CCN(C)CC3)nc(Sc3ccc(NC(=O)C4CC4)cc3)n2)n[nH]1 [Tozasertib] (partner 0.1 µM)
Procedure, shortened: as §1

[4] = compound: CCN1C(=O)C2=CC(=C(N=C2N(C1=O)C3CC3)N)C(=O)N + Cc1nc(Nc2ncc(C(=O)Nc3c(C)cccc3Cl)s2)cc(N2CCN(CCO)CC2)n1 [Dasatinib] (partner 0.075 µM)
Procedure, shortened: as §1

[5] = compound: CCN1C(=O)C2=CC(=C(N=C2N(C1=O)C3CC3)N)C(=O)N + Nc1ncn([C@H]2C[C@H](O)[C@@H](CO)O2)c(=O)n1 [Decitabine] (partner 2 µM)
Procedure, shortened: as §1

| Cell Line | relative viability ([1]; first compound 0.253 µM) | relative viability ([1]; first compound 0.8 µM) | relative viability ([1]; first compound 2.53 µM) | relative viability ([1]; first compound 8 µM) | relative viability ([2]; first compound 0.253 µM) | relative viability ([2]; first compound 0.8 µM) | relative viability ([2]; first compound 2.53 µM) | relative viability ([2]; first compound 8 µM) | relative viability ([3]; first compound 0.253 µM) | relative viability ([3]; first compound 0.8 µM) | relative viability ([3]; first compound 2.53 µM) | relative viability ([3]; first compound 8 µM) | relative viability ([4]; first compound 0.253 µM) | relative viability ([4]; first compound 0.8 µM) | relative viability ([4]; first compound 2.53 µM) | relative viability ([4]; first compound 8 µM) | relative viability ([5]; first compound 0.253 µM) | relative viability ([5]; first compound 0.8 µM) | relative viability ([5]; first compound 2.53 µM) | relative viability ([5]; first compound 8 µM) |
| --- | --- | --- | --- | --- | --- | --- | --- | --- | --- | --- | --- | --- | --- | --- | --- | --- | --- | --- | --- | --- |
| NCI-H2126 | 0.86 | 0.884 | 0.736 | 0.775 | 1.34 | 0.76 | 1.09 | 1.12 | 0.86 | 0.798 | 0.801 | 0.828 | 0.632 | 0.55 | 0.596 | 0.52 | 0.552 | 0.544 | 0.541 | 0.622 |
| NCI-H2170 | 0.576 | 0.544 | 0.608 | 0.595 | 1.02 | 1 | 0.954 | 0.989 | 0.752 | 0.788 | 0.692 | 0.632 | 0.518 | 0.549 | 0.596 | 0.522 | 0.495 | 0.488 | 0.462 | 0.404 |
| NCI-H2347 | 0.816 | 0.871 | 0.801 | 0.749 | 0.797 | 1.09 | 1.43 | 1.09 | 0.666 | 0.61 | 0.572 | 0.482 | 0.294 | 0.307 | 0.161 | 0.323 | 0.722 | 0.66 | 0.622 | 0.643 |
| NCI-H2405 | 1.13 | 0.882 | 1.01 | 1.07 | 1.04 | 1.05 | 1.07 | 1.06 | 0.823 | 0.777 | 0.757 | 0.732 | 0.196 | 0.185 | 0.227 | 0.174 | 0.771 |  | 0.718 | 0.669 |
| NCI-H3122 | 1.06 | 1.02 | 1.02 | 1.01 | 1.02 | 0.991 | 0.968 | 0.916 | 0.393 | 0.369 | 0.376 | 0.533 | 0.772 | 0.803 | 0.81 | 0.788 | 0.396 | 0.432 | 0.434 | 0.427 |
| PC-3 [JPC-3] | 0.747 | 0.838 | 0.861 | 0.755 | 1.02 | 1.03 | 1 | 0.929 | 0.911 | 0.872 | 0.925 | 0.869 | 1.05 | 1.04 | 1.05 | 0.973 | 0.81 |  | 0.871 | 0.886 |
| PC-14 | 1.01 | 1.06 | 0.935 | 0.956 | 0.914 | 0.961 | 0.954 | 0.969 | 0.597 | 0.604 | 0.525 | 0.64 | 0.244 | 0.258 | 0.252 | 0.298 | 0.207 | 0.171 | 0.244 | 0.193 |
| RERF-LC-KJ | 1.21 | 0.947 | 0.767 | 0.923 | 0.868 | 0.875 | 0.898 | 0.884 | 0.498 | 0.499 | 0.479 | 0.441 | 0.76 | 0.82 | 0.676 | 0.795 | 0.772 | 0.742 | 0.68 | 0.593 |
| SK-LU-1 | 0.797 | 0.855 | 0.977 | 0.865 | 0.925 | 0.799 | 0.839 | 1 | 0.349 | 0.305 | 0.324 | 0.306 | 0.196 | 0.184 | 0.176 | 0.187 | 0.63 | 0.72 | 0.782 | 0.669 |
| SK-MES-1 | 1.03 | 1.28 | 1.22 | 1.27 | 0.946 | 0.876 | 0.94 | 0.837 | 0.902 | 0.931 | 0.85 | 0.918 | 0.409 | 0.393 | 0.393 | 0.448 | 0.381 | 0.359 | 0.4 | 0.365 |
| SW 1573 | 0.949 | 0.977 | 0.919 | 0.979 | 0.978 | 0.762 | 0.832 | 0.933 | 0.172 | 0.174 | 0.142 | 0.219 | 0.564 | 0.411 | 0.483 | 0.464 | 0.573 | 0.582 | 0.434 | 0.476 |
| UMC-11 | 0.312 | 0.277 | 0.308 | 0.324 | 1.02 | 1.05 | 1.1 | 1.13 | 0.2 | 0.213 | 0.188 | 0.206 | 0.463 | 0.434 | 0.485 | 0.496 | 0.71 | 0.604 | 0.617 | 0.457 |
